This note sets out measurements from US20250207131A1, “MODIFIED RNA AGENTS WITH REDUCED OFF-TARGET EFFECT” (Alnylam Pharmaceuticals, Inc., priority 2018, published 2025).

The subject of series [1] is GO1 (HAO1). Put plainly: In vitro on-target activity, primary mouse hepatocytes, transfection, RT-qPCR (GO1/HAO1 siRNAs). Format: cell-based. The settings on record: HAO1 (Seq 1). How it is done:
Cell culture and transfections: Primary Mouse Hepatocytes (Thermo Fisher Scientific/Gibco) were transfected by adding 4.9 μL of Opti-MEM plus 0.1 μL of Lipofectamine RNAiMax per well (Invitrogen, cat #13778-150) to 5 μL of siRNA duplexes per well into a 384-well plate and incubated at room temperature for 15 minutes. 40 μL of Dulbecco's Modified Eagle Medium (Hep3b) or William's Medium (PMH) containing ˜5 ×10^3 cells were then added to the siRNA mixture. Cells were incubated for 24 hours at 37° C. and then processed for RNA purification. Experiments were performed at 10 nM and 0.1 nM doses of siRNA.
Total RNA isolation using DYNABEADS mRNA Isolation Kit: RNA was isolated using an automated protocol on a BioTek-EL406 platform using DYNABEADs (Invitrogen, cat #61012). Briefly, 70 μL of Lysis/Binding Buffer and 10 μL of lysis buffer containing 3 μL of magnetic beads were added to each well. […]
Real time PCR: 2 μL of cDNA were added to a master mix containing 2 μL water, 0.5 μL of either an appropriate GAPDH TaqMan VIC Probe or the target probe and 5 μL Lightcycler 480 probe master mix (Roche, cat #04887301001) per well in a 384 well plate (Roche, cat #04887301001). […] To calculate relative fold change, real time data were analyzed using the ΔΔCt method and normalized to assays performed with cells transfected with a non-targeting control siRNA.

Series [2] concerns luciferase reporter plasmids (psiCHECK2, Renilla luciferase fused to target sequence). Put plainly: Off-target Dual-Glo luciferase reporter assay in COS-7 cells. Type of series: cell-based. The following applies: HAO1 (Seq 1); luciferase reporter plasmids co-transfected with siRNAs into COS-7 cells. How it is done:
Dual-Glo® Luciferase assay: Cos7 cells (ATCC, Manassas, VA) were grown to near confluence at 37° C. in an atmosphere of 5% CO2 in DMEM (ATCC) supplemented with 10% FBS, before being released from the plate by trypsinization. siRNA and psiCHCECK2 plasmid transfection was carried out by adding 5 μL of siRNA duplexes and 5 μL of psiCHECK2 plasmid per well along with 5 μL of Opti-MEM plus 0.1 μL of Lipofectamine 2000 per well (Invitrogen, Carlsbad CA. cat #13778-150) and then incubated at room temperature for 15 minutes. The mixture was then added to the cells which were re-suspended in 35 ul of fresh complete media. The transfected cells were incubated at 37° C. in an atmosphere of 5% CO2.
48 hours after the siRNAs and psiCHECK2 plasmid were transfected; Firefly (transfection control) and Renilla (fused to target sequence) luciferase were measured. First, media was removed from cells. Then Firefly luciferase activity was measured by adding 20 μL of Dual-Glo® Luciferase Reagent equal to the culture medium volume to each well and mix. The mixture was incubated at room temperature for 30 minutes before luminescence (500 nm) was measured on a Spectramax (Molecular Devices) to detect the Firefly luciferase signal. Renilla luciferase activity was measured by adding 20 μL of room temperature of Dual-Glo® Stop & Glo® Reagent was added to each well and the plates were incubated for 10-15 minutes before luminescence was again measured to determine the Renilla luciferase signal. The Dual-Glo® Stop & Glo® Reagent, quenches the firefly luciferase signal and sustained luminescence for the Renilla luciferase reaction. siRNA activity was determined by normalizing the Renilla signal to the Firefly (control) signal within each well. The magnitude of siRNA activity was then assessed relative to cells that were transfected with the same vector but were not treated with siRNA or were treated with a non-targeting siRNA. All transfections were done at n=2 or greater.

For series [3] the following is noted: rat, in vivo, sc, 30 mg/kg.
Series [4] is described as follows: Rat toxicity study, clinical pathology parameters. The settings on record: rats, single subcutaneous dose 30 mg/kg, cohort average.

Turning to “Parent (AD-65644): GO1 siRNA; passenger g•a•auguGaaAGucaucgacaa(L), guide u•U•gucGaUGacuuUcAcauuc•u•g (sense AUGUGAAAGUCAUCGACAA; antisense GUCGAUGACUUUCACAUUC; phosphorothioate ends, overhangs, chemistry not fully specified)”, in series [1] (0.1 nM siRNA), the “On-Target mRNA remaining (%) 0.1 nM siRNA” value turned out to be 96.1%. The “On-Target mRNA remaining (%) 10 nM siRNA” value in series [1] (10 nM siRNA) is 27.7%. This substance also gave an IC50 in series [2] of 0.53 nM. Moreover, in series [3], the “A/G Avg.” value was found to be 1.1. Further, in series [4], the “ALB Avg.” value is given as 3.0 g/dL, the “ALP Avg.” value is on record as 449 U/L, the “ALT Avg.” value is 47 U/L and the “AST Avg.” value came out at 180 U/L. Moreover, in series [4], the “BILI Avg.” value is given as 0.52 mg/dL, the “CA Avg.” value was found to be 10.3 mg/dL, the “CHOL Avg.” value turned out to be 74 mg/dL and the “CREAT Avg.” value is 0.23 mg/dL. In addition, in series [4], the “GLDH Avg.” value was determined as 77.5 U/L, the “GLOB Avg.” value is on record as 2.63 g/dL, the “GLUC Avg.” value was 113 mg/dL and the “K Avg.” value is 4.3 mmol/L. For the same substance, in series [4], the “NA Avg.” value worked out at 140 mmol/L, the “PHOS Avg.” value is 8.8 mg/dL, the “PROT Avg.” value is 6 g/dL and the “TRIG Avg.” value is listed as 138 mg/dL. In addition, in series [4], the “UREAN Avg.” value was determined as 16.8 mg/dL.
